# Measured values: patent US20250064889A1, “TRPV6 INHIBITORS AND COMBINATION THERAPIES FOR TREATING CANCERS” (Soricimed Biopharma Inc., priority 2017, published 2025)
# Key:
# [1] = tested on: calcineurin; assay: Calcineurin Cellular (PP2B) Phosphate Activity Assay on BxPC-3 cell lysates; type: cell-based; settings: 500 μM, at 24 hrs and 72 hrs, p<0.05
# Protocol: (§1) • Drug Dosing: Cells were plated at 5×10^5 cells/well in a 6-well plate. After 24 hrs incubation the BxPC-3 cells were dosed daily with NT (s.f. PBS) or 500 μM SOR-C13 (prepared fresh daily in f.s. PBS) for 72 hrs. Once dosed cells were incubated at 37° C./5% CO2 for the duration dosing period of 72 hrs. Dosing was repeated every 24 hrs for 72 hrs. Every 24 hrs protein lysates (RIPA) were prepared from cells and de-salted (7 kDa MWCO, Zebra spin columns, Fisher). Bel-2 assay was a 96 hrs dosing parameter. • Plate Assay (Calnr): Cellular Calcineurin concentration was monitored at 620 nm using the Calcineurin Cellular (PP2B) Phosphate Activity Assay kit (EMD Millipore). Results were interpolated from standard curve for amount of Phosphate released. • Plate Assay (Bcl-2): Human total Bel-2 concentration was performed using DuoSet® Human Total BcL-2 sandwich ELISA (R&D Systems). Bel-2 concentration for BxPC-3 cells was extrapolated from (4-PL) standard curve Bel-2.
# [2] = tested on: BxPC-3 pancreatic cancer cells; assay: Combination with immune checkpoint modulator: BxPC-3 cells co-incubated with activated Jurkat cells, viability and IL-2; type: cell-based; settings: BxPC-3 pre-treated with INF-γ, 100 μM SOR-C13 48 hours
# Protocol: Experiments are performed to evaluate the effect of TRPV6 inhibitors in combination with immune checkpoint modulators such as PD-1 inhibitors (see Yang et al., Invest Ophthalmol Vis Sci. 2008 June; 49(6): 2518-2525; and FIG. 2). Briefly, BxPC-3 pancreatic cancer cells are treated with INF-γ for 48 hours to induce the cell surface expression of PD-L1. Once activated, sets of BxPC-3 cells are treated with 0 or 100 μM of SOR-C13 (KEFLHPSKVDLPR; SEQ ID NO:2) for 48 hours. Immune checkpoint modulatory test agents such as pembrolizumab (KEYTRUDA*) are added at various concentrations, along with activated Jurkat cells (i.e., cytotoxic T-cells), and co-incubated with the BxPC-3 cells for 48 hours.
# Viability and IL-2 production is determined 48 hours later. Activated Jurkat cells produce IL-2 which mediates the killing of BxPC-3 cells. Cell death is quantified using the Cell Titre Glow Cellular Viability Assay. The effect of SOR-C13 on IL-2 mediated killing of BxPC-3 cells is compared to IL-2 mediated killing of BxPC-3 cells in the absence of SOR-C13.
# [3] = tested on: NFAT activation; assay: In vitro NFAT analysis: NFAT dual reporter luciferase assay in T-47D cells; type: cell-based; settings: 500 μM daily for 72 hrs, p<0.05
# Protocol: (§2) • Transfection: T-47D cells were plated at 1×10^4 cells/well in a 96-well plate and cultured overnight. Cells were transfected for 24 hrs at 37° C./5% CO2 using Liptofectamine 3000 (0.3 μL/well)/P3000 Reagent (1 μL/well) in Opti-MEM medium and with a 500 ng of NFAT dual reporter plasmid (Cignal NFAT Reporter, Qiagen). • Drug Dosing: After transfection the T-47D cells were dosed daily with NT (s.f. PBS) or 500 μM SOR-C13 (prepared fresh daily in f.s. PBS) for 72 hrs. Once dosed the 96-well plate was incubated at 37° C./5% CO2 for the duration dosing period of 72 hrs. Dosing was repeated every 24 hrs for 72 hrs. • Plate Assay: Luminescence was monitored using Dual-Glo® Luciferase assay (Promega) to measure changes in NFAT luminescence expression (related to pKC pathway) between PBS and SOR-C13 treated T-47D cells. Firefly and Renilla Luminescence was measured using a molecular devices microplate reader.
# [4] = tested on: Human total Bel-2; assay: Human Total Bcl-2 sandwich ELISA on BxPC-3 cells; type: cell-based; settings: 500 μM, at 96 hrs, p<0.05
# Protocol: as §1
# [5] = tested on: MMP-9; assay: MMP-9 Cytoglow ELISA on BxPC-3 cells; type: cell-based; settings: BxPC-3 cells treated for 96 hr daily at 100 and 500 μM, p<0.05
# Protocol: • Drug Dosing: BxPC-3 cells were plated at 2×10^4 cells/well in a 96-well plate and cultured overnight. Cells were dosed daily with NT (s.f. PBS) 100, 500 μM SOR-C13 (prepared fresh daily in f.s. PBS) for 96 hrs. Dosing was repeated every 24 hrs for 96 hrs. • Plate Assay: MMP-9 concentration was monitored using the MMP-9 Cytoglow ELISA (Assay Biotech). Cells were fixed to plate, and ELISA was performed, MMP-9 expression was calculated as % of No Treatment control.
# [6] = tested on: NFAT signalling molecular pathway targets (Calnr, Bel-2, ATX, MMP-9 and NFAT); assay: In vitro dosing experiments, NFAT signalling molecular pathway targets (summary); type: cell-based
# Protocol: as §2
# • Drug Dosing: Cells were plated at 5×10^5 cells/well in a 6-well plate. After 24 hrs incubation the BxPC-3 cells were dosed daily with NT (s.f. PBS) or 500 μM SOR-C13 (prepared fresh daily in f.s. PBS) for 72 hrs. […] Bel-2 assay was a 96 hrs dosing parameter. • Plate Assay (Calnr): Cellular Calcineurin concentration was monitored at 620 nm using the Calcineurin Cellular (PP2B) Phosphate Activity Assay kit (EMD Millipore). […]
# [7] = Fu et al. 2017; cited from earlier work
# [8] = tested on: T-47D breast cancer cell lines; assay: RT-qPCR TaqMan Array, 187 gene panel, T-47D cells treated with SOR-C13; type: cell-based; settings: 500 μM for 120 hrs, genes with >1.5 fold change
# Protocol: • mRNA Expression: The expression NFAT/Ca^2+ related genes mRNA levels were determined in 6 Cancer Cell lines treated with SOR-C13 (500 μM) for 120 hrs using a qPCR TaqMan® Array panel consisting of 187 genes (ThermoFisher). Cells were harvested with lysis buffer from the PureLink RNA Mini Kit and then RNA isolation carried out as per manufacturers instructions (ThermoFisher Scientific). RNA was quantified using the Qubit Fluorometer. Reverse Transcription was performed and cDNA created using SuperScript™ IV VILO Master Mix with ezDNase Enzyme (ThermoFisher Scientific). Each port of the Custom TaqMan® Array Card was loaded with 500 ng of cDNA and 1× TaqMan Fast Advanced Master Mix. RT-qPCR was performed using the Quantstudio™ 7Flex and analysis performed by ThermoFisher cloud software using GUSB and HRPT1 as endogenous controls.
sequence,measurement,setting,value
KEFLHPSKVDLPR [SOR-C13],calcineurin activity,[1],inhibition
same,anti-cancer activity of immune checkpoint modulators such as pembrolizumab on addition of SOR-C13,[2],increases
same,"NFAT activation, SOR-C13-treated cells vs. PBS",[3],significant difference
same,Bel-2 expression,[4],significant decrease
same,"MMP-9 expression, % from PBS control",[5],reduction
same,"NFAT signalling molecular pathway targets (Calnr, Bel-2, ATX, MMP-9 and NFAT) with treatment",[6],decreases
same,anti-tumour activity,[7],promising anti-tumour activity
same,tolerability and safety profile,[7],good tolerability and manageable safety profile
same,"NFATC1, MMP2, GSK3 and RCAN1 mRNA expression (Calcineurin/NFAT pathway)",[8],affected
